Earlier results on two molecules are cited in patent publication US8571804B2, “Disease treatment by predicting drug association” (Pharnext, priority 2007, dated 2013).

Structures are written as SMILES.

The test system of data set [1] is CMT animal models.
The subject of data set [2] is PMP22-transgenic CMT1A rat model.

On to `O=C1O[C@H]([C@@H](O)CO)C(O)=C1O` [ascorbic acid], for which, in data set [1], the clinical features entry is on record as “improve clinical features”.

As for `CN(C)c1ccc([C@H]2C[C@]3(C)[C@@H](CC[C@]3(O)CCCO)[C@@H]3CCC4=CC(=O)CCC4=C32)cc1` [onapristone], in data set [2] (compared with placebo-treated controls), the clinical symptoms result is “significantly improved clinical symptoms”. Moreover, in data set [2] (transgenic rodents, antiprogestin treatment), the “expression of PMP22 protein” value is reported as “decreased expression of PMP22 protein”.
